Results from paper PMC6013238, “Development of novel NEMO-binding domain mimetics for inhibiting IKK/NF-κB activation” (PLoS Biology, 2018).
Several values for one entry are separate records, joined by “and”; a condition that tells them apart may be missing. Identical values can stand only once. Like-named read-outs stand apart in the source and are kept apart here.

Columns and labels:
[1] = test system: NEMO; conditions: ref [21], [32]–[34]; read-out: IC50, affinity to NEMO; cited from earlier work
[2] = test system: NF-κB activation; experiment: Dual-luciferase (NF-κB firefly/SV40-Renilla) reporter assay, TNF-α-stimulated HEK293 cells; type: cell-based, human; conditions: for Relative luciferase activity (NF-κB/Renilla): Fig 4B, CTRL about 1; for NF-κB luciferase activity, dose-dependent curve: Fig S1A, CTRL about 100; for IC50: Homo sapiens, HEK293, luciferase assays at 0, 25, 50, 100, 150 μM, GraphPad, read-out: IC50 of inhibition of TNF-α-mediated NF-κB activation
[3] = test system: NF-κB target genes; experiment: qRT-PCR of NF-κB target genes in LPS-stimulated Raw 264.7 cells; type: cell-based, mouse; conditions: LPS 1 μg/ml 2 h; for COX2 mRNA expression (qRT-PCR) / IL6 mRNA expression (qRT-PCR) / IL-1b mRNA expression (qRT-PCR) / TNFa mRNA expression (qRT-PCR) / iNOS mRNA expression (qRT-PCR) / ikBa mRNA expression (qRT-PCR): Fig 4C, IKKi VII 2 μM, 8K-NBD 200 μM, SR compounds 50 μM, relative to no LPS; for Effect on transcription of NF-κB target genes (COX-2, IL-6, IL-1β, TNF-α, IκBα, iNOS): 50 μM
[4] = test system: IL-6 production; experiment: Mouse IL-6 ELISA of supernatant of LPS-stimulated Raw 264.7 cells; type: cell-based; conditions: LPS 1 μg/ml 24 h; for mIL-6 in supernatant (ELISA): Fig 4D; for Effect on LPS-induced IL-6 production (ELISA): 25 and 50 μM
Procedure: Fig 4 Modified lead NBD mimetics inhibit TNF-α- and LPS-induced NF-κB activation by disrupting the association between NEMO and IKKβ. (A) Structures of top NBD mimetics. (B) Measurement of NF-κB activation in response to TNF-α by using Dual-luciferase reporter assays. HEK293 cells cotransfected with NF-κB luciferase reporter and SV40-Renilla plasmids were pretreated with DMSO or listed small molecules at 0, 25, 50, 100, and 150 μM for 30 min, followed by the induction of TNF-α for 3 h. Data shown are representative of 2–3 independent experiments. […] Raw 264.7 cells were pretreated with indicated drugs for 30 min and then stimulated with 1 μg/ml of LPS for 2 h. Cells were then harvested for RNA extraction and qRT-PCR analysis. Drug concentrations used are as follows: IKKi VII (2 μM), 8K-NBD peptide (200 μM), SR12343 (50 μM), SR12460 (50 μM), SR12454 (50 μM), and SR11481 (50 μM). Data are representative of 2 independent experiments. […] Raw 264.7 cells pretreated with DMSO or drugs at indicated concentrations were exposed to 1 μg/ml of LPS for 24 h, and supernatant was collected for ELISA analysis of mouse IL-6. *P < 0.05; **P < 0.01. Underlying data can be found in S1 Data. HEK293, human embryonic kidney 293 cells; IKK, IκB kinase; IL-6, interleukin 6; LPS, lipopolysaccharide; NBD, NEMO-binding domain; n.d., nondetectable; NEMO, NF-κB essential modulator; NF-κB, nuclear factor κB; qRT-PCR, […] real-time polymerase chain reaction; TNF-α; tumor necrosis factor α. TEXT PRINTED IN THE PICTURE: (D) ikki VII: mIL-6 (ng/ml): n.d. | (D) SR12460: mIL-6 (ng/ml): n.d. (50μM) | (D) SR12454: mIL-6 (ng/ml): n.d. (50μM) DOUBTS OF THE COPYIST ABOUT THIS PICTURE: Panel D: the only printed results are the three "n.d." labels. They stand in place of bars and are assigned to ikki VII, SR12460 50μM and SR12454 50μM by their position on the axis. All other results are shown only as bars, with no printed numbers.
To confirm the qRT-PCR results, the levels of IL-6 production in Raw 264.7 cells activated by LPS were analyzed by ELISA.
Raw 264.7 cells were grown in 96-well plates and pretreated with vehicle, IKKi VII (2 μM), and small molecules (at indicated concentration) for 1 h, followed by the stimulation with 1 μg/ml of LPS. Supernatant was collected 24 h later for ELISA analysis. IL-6 concentration was measured using a mouse IL-6 ELISA kit (BD) according to the manufacturer’s instructions.

[5] = Plasma and tissue concentrations 2 h after a single i.p. injection; type: in vivo, mouse; conditions: male, C57BL/6J, mouse, ip, 10 mg/kg, 2 h post single i.p. 10 mg/kg, single mice
Procedure: To determine the stability of the NBD mimetics in vivo, their levels were measured in the plasma of mice 2 h post i.p. injection with 10 mg/kg of each compound. The concentration of SR12460 was very high in plasma (>6.5 μg/mL; 20 μM), while levels in brain, muscle, spleen, and liver were lower. SR12343 and SR12454 had lower plasma concentrations, with SR12343 showing a higher level in liver and SR12454 showing higher concentrations in muscle and spleen. The level of SR11481 was undetectable in plasma and tissues (Fig 6A).
Fig 6 Newly identified NBD mimetics suppress LPS-induced acute inflammation in vivo. (A) The bioavailability property of SR12460, SR12343, SR12454, and SR11481. Concentrations of NBD mimetics were determined in plasma, brain, muscle, spleen, and liver 2 h post a single i.p. injection of 10 mg/kg of drugs; n = 3 per group. (B) Shown is the model to induce LPS-mediated acute inflammation and the treatment regimen with NBD mimetics. Mouse image via http://www.clker.com/clipart-mice-blank.html (copyright-free). (C) NBD mimetics suppressed LPS-induced acute inflammation in liver and lung by down-regulating NF-κB target gene expression. Vehicle, SR12343, SR12460, and 8K-NBD peptide were dosed at 10 mg/kg 30 min prior to the LPS treatment. Acute inflammation was induced by i.p. injection of 10 mg/kg LPS. Lung and liver were collected 2–4 h post injection, and mRNA was extracted for qRT-PCR analysis. (D, E) Western blot analysis was performed to probe for the expression of p-IκBα and COX-2 at protein level in liver and lung tissues. (F) Serum levels of IL-6 were determine by ELISA. n = 3–8 each group. *P < 0.05, **P < 0.01. Underlying data can be found in S1 Data. COX-2, cyclooxygenase 2; IL-6, interleukin 6; i.p., intraperitoneal; LPS, lipopolysaccharide; NBD, NEMO-binding domain; n.d., nondetectable; NEMO, NF-κB essential modulator; NF-κB, nuclear factor κB; qRT-PCR, quantitative real-time polymerase chain reaction. TEXT PRINTED IN THE PICTURE: (A) SR11481: Concentration (ng/ml): n.d. (plasma)
The pharmacokinetic profile of the NBD mimetics was determined in male C57BL/6J mice (n = 3). The drugs were formulated in 10:10:80 of DMSO:Tween 80:water and were dosed by i.p. injection at a final dose of 10 mg/kg. Blood, brain, muscle, spleen, and liver were collected 2 h post treatment and were analyzed by mass spectrometry by following a protocol previously described.

IC50 [2] [µM]	Compound	IC50 [1] [µM]	Relative luciferase activity (NF-κB/Renilla) ([2]; 25 μM)	Relative luciferase activity (NF-κB/Renilla) ([2]; 50 μM)	Relative luciferase activity (NF-κB/Renilla) ([2]; 100 μM)	Relative luciferase activity (NF-κB/Renilla) ([2]; 150 μM)	NF-κB luciferase activity, dose-dependent curve ([2]; 25 μM)	NF-κB luciferase activity, dose-dependent curve ([2]; 50 μM)	NF-κB luciferase activity, dose-dependent curve ([2]; 100 μM)	NF-κB luciferase activity, dose-dependent curve ([2]; 150 μM)	COX2 mRNA expression (qRT-PCR) [3]	IL6 mRNA expression (qRT-PCR) [3]	IL-1b mRNA expression (qRT-PCR) [3]	TNFa mRNA expression (qRT-PCR) [3]	iNOS mRNA expression (qRT-PCR) [3]	ikBa mRNA expression (qRT-PCR) [3]	Effect on transcription of NF-κB target genes (COX-2, IL-6, IL-1β, TNF-α, IκBα, iNOS) [3]	mIL-6 in supernatant (ELISA) ([4]; 25 μM)	mIL-6 in supernatant (ELISA) ([4]; 50 μM)	Effect on LPS-induced IL-6 production (ELISA) [4]	further results
–	IKKβ-derived peptide (701–746): longer IKKβ-derived peptide (701–746) with strongest affinity to NEMO (PAKKSEELVAEAHNLCTLLENAIQDTVREQDQSFTALDWSWLQTEE; UniProt O14920 701-746, looked up, fragment)	~0.01	–	–	–	–	–	–	–	–	–	–	–	–	–	–	–	–	–	–	–
20.2	O=C(COCCc1cc(F)cc(F)c1)Nc1ccc(Cl)cn1 [SR12454]	–	0.3499 and 0.3985 and 0.4797	0.1222 and 0.1389 and 0.1212	0.07928 and 0.07742 and 0.08432	0.1048 and 0.1061 and 0.0973	35 and 40 and 48	12 and 14	8 and 7.7 and 8.4	10.4 and 10.6 and 9.7	150.094 and 139.148 and 109.409	68.7623 and 55.5227 and 41.2895	114.812 and 133.157 and 94.1462	50.3605 and 45.36 and 45.9381	0.9093 and 0.7681 and 0.624	6.788 and 6.238 and 5.4976	significantly inhibit the transcription of all NF-κB target genes tested	0.9451 ng/mL and 1.2144 ng/mL and 1.5871 ng/mL	0 ng/mL	inhibit IL-6 secretion significantly in a dose-dependent manner	concentration at 2 h ([5]; liver, read-out: Concentration in liver): 50 ng/mL
–	11-mer NBD peptide: traditional 11-mer NBD peptide of IKKβ (735–745) (TALDWSWLQTE; NEMO-binding domain peptide; UniProt O14920 735-745, looked up, fragment)	~100	–	–	–	–	–	–	–	–	–	–	–	–	–	–	–	–	–	–	–
45	O=C(COC(=O)Cc1cc(F)cc(F)c1)Nc1ccc(Cl)cn1 [SR11481]	–	0.669 and 0.7893 and 1.108	0.3445 and 0.3583 and 0.2895	0.1303 and 0.1653 and 0.168	0.2602 and 0.3121 and 0.2334	67 and 79 and 111	34 and 36 and 29	13 and 16 and 17	26 and 31 and 23	591.346 and 521.171 and 682.383	630.626 and 570.463 and 862.622	411.733 and 420.368 and 564.689	96.3315 and 86.7639 and 154.495	25.4503 and 21.5558 and 14.0886	12.89 and 13.062 and 21.9932	did not induce a detectable suppression	1.0708 ng/mL and 1.7487 ng/mL and 1.6903 ng/mL	2.4581 ng/mL and 2.0675 ng/mL and 2.2021 ng/mL	significant reduction in the accumulation of IL-6 protein	concentration at 2 h ([5]; plasma, read-out: Concentration in plasma): 0 ng/mL
